{
  "source": "paper PMC9127185",
  "about": "“A Pyridazinone Compound for Effectively Treating Non-alcoholic Steatohepatitis by Targeting THRβ” (Frontiers in Chemistry, 2022)",
  "key": {"[1]": {"experiment": "Pharmacokinetic study after oral administration, plasma by UPLC-MS/MS", "assay_type": "in vivo, C57BL/6J mice", "details": "for Cmax / Tmax / CL/F / MRT last / MRT inf / half-life: C57BL/6J, mouse, mice plasma; for CL/F: read-out: CLz/F; for MRT last: read-out: MRT (0-t) (converted); for MRT inf: read-out: MRT (0-∞) (converted); for half-life: read-out: t1/2z", "method": "Sorvall Biofuge Stratos high-speed refrigerated centrifuge was bought from the Thermo Fisher Scientific Co. Ltd. (Shanghai, China); EL204 electronic balance was selected from Shanghai Mettler-Toledo Instruments Co. Ltd. (Shanghai, China); IKA Vortex Genius 3 Vortex Mixer was purchased from Aika Instrument Equipment Co. Ltd. (Guangzhou, China); and the test was carried out using an AB SCIEX™ 5500 Q-Trap® mass spectrometer (Applied Biosystems, United States) coupled to a Shimadzu Prominence UPLC (ultra-performance liquid chromatography, Shimadzu, United States) system. It was equipped with a binary pump, a degasser, an auto sampler, and an automatic thermostatic column compartment. The column was utilized from Agela Technologies UHP Innoval C18 (2.1 × 50 mm, 1.9 μm; Agela Technologies; Made in China). The whole process with a gradient elution program is as follows: 0.00–0.50 min, 5% B; 0.50–1.50 min, 90% B; 1.50–3.00 min, 90% B; 3.00–3.10 min, 15% B; and 3.10–5.00 min, 15% B. The mobile phase was made up of 0.10% formic acid in water (A) and acetonitrile (B), and the velocity of flow was 0.50 ml/min. The auto sampler and column temperature were set at 15 and 40°C, respectively. The injection volume was 1 μl. The Q-Trap mass spectrometer was operated with positive electrospray ionization source (ESI) and scanned using the multiple-reaction monitoring (MRM) mode. The Analyst® software version 1.6.3 (Applied Bio-systems, AB SCIEX™, United States) was used to control the UPLC-MS/MS system. The best of the YWS01125 parameters was curtain gas, 35 psi; collision gas, medium; ion spray voltage, 5500 V; temperature, 500°C; ion source gas 1, 50 psi; and ion source gas 2, 50 psi. The quantitative analysis ion pairs of YWS01125 and MGL-3196 (IS) were m/z 446.2 → 375 and m/z 435.2 → 182, individually. The suitable collision energy (CE) of YWS01125 and IS was 42 and 50 eV, respectively, and the decluttering voltage (DP) was 160 and 180 V, respectively.\nThe frozen mice plasma samples and tissue homogenates were thawed at room temperature, vortexed for 1 min, then taken out in 10-μl aliquots in a 1.50-ml centrifuge tube, and this was then mixed with 1 μl of standard solution and 50 μl of internal standard (IS) solution, which was then dissolved and diluted with acetonitrile. Subsequently, it was vortexed for 3 min and at 14,000 rpm centrifugation for 5 min. The adopted 1 μl of the supernatant was used for sample injection analysis.\nA total of 18 C57BL/6J mice were given YWS01125 by oral administration with a dose of 10, 20, and 40 mg/kg, respectively ([Lally et al., 2019]; [Kelly et al., 2014]; [Motamed et al., 2017]) (with the concentration of drug administration selected according to the study by Kelly et al.). The blood samples of 20 μl were collected and placed in heparinized tubes from the ophthalmic venous plexus before and at 0.03, 0.08, 0.16, 0.25, 0.50, 1, 2, 4, 6, 8, 12, and 24 h. The samples were immediately centrifuged at 14,000 rpm for 10 min at 4°C. The plasma was separated and stored below −80°C until UHPLC-MS/MS analysis.\nThe validated method was applied to the pharmacokinetic study of YWS01125 in normal C57BL/6J mice after oral administration, at doses of 10, 20, and 40 mg/kg suspensions with sodium carboxymethyl cellulose (CMCNa). YWS01125 was measured in the plasma until the last blood collection time (24 h). The main pharmacokinetic parameters of YWS01125 were processed by a no compartmental model using the DAS 2.0 software package, and the pharmacokinetic parameters are summarized in Table 4."}, "[2]": {"experiment": "Stability of liver microsomes study (mouse)", "assay_type": "in vitro ADME", "details": "mouse liver microsomes 0.50 mg/ml, NADPH-generating system, 37°C, 0-90 min", "method": "Hypersil GOLD C18 column (4.6 × 150 mm, 5 μm, Thermo). A 0.025% ammonia aqueous solution in water (solvent A) and acetonitrile (solvent B) were used as mobile phases with gradient elution. The gradient was as follows: 0.01 min, 15% B; 5 min, 20% B; 12 min, 80% B; 16 min, 80% B; 16.01 min, 15% B; 19 min, 15% B; and 19.01 min, stopped. The timing interval was 19 min, and the flow rate was set at 1 ml/min.\nThe incubation system was carried out in 0.05 M Tris/KCl buffer (PH = 7.4) and included the following: pyrazinone compounds dissolved with dimethyl sulfoxide (DMSO), mouse liver microsomes and human liver microsomes at 0.50 mg/ml, 1.30 mM nicotinamide adenine dinucleotide sodium phosphate (NADP), 3.30 mM glucose-6-phosphate disodium salt (G-6-P), 0.40 units/mL glucose-6-phosphate dehydrogenase (G-6-PDH), and 3.30 mM magnesium chloride. […] After preincubation for 3 min in an 850-rpm blender (37°C), liver microsomes were added to initiate the incubation reaction (37°C). The incubation time was 0, 30, 60, and 90 min. After incubation, an equal volume of cold acetonitrile was added to stop the reaction, and an internal standard (0.05 mg/ml acetaminophen solution) was added. The samples were centrifuged at 10,000 rpm for 10 min to precipitate proteins ([Day et al., 2017]; [Manne et al., 2018]), and the 10 µL of the supernatant was taken for HPLC analysis."}, "[3]": {"experiment": "Stability of liver microsomes study (human)", "assay_type": "in vitro ADME", "details": "human liver microsomes 0.50 mg/ml, NADPH-generating system, 37°C, 0-90 min"}, "[4]": {"experiment": "Cytotoxicity", "assay_type": "cell-based", "details": "in words, no data shown"}, "[5]": {"test_system": "acute hyperlipidemia mice", "experiment": "Acute hyperlipidemia mice", "assay_type": "in vivo", "details": "in words, no data shown"}, "[6]": {"test_system": "NASH", "experiment": "NASH pharmacodynamic study", "assay_type": "in vivo", "details": "in words, no data shown"}},
  "note": "Entries after “also recorded” stand apart in the source; their conditions may differ. Like-named read-outs stand apart in the source and are kept apart here.",
  "data": [
    {"compound": "N#Cc1cn(-c2cc(Cl)c(Oc3cc(C4CCC4)c(=O)[nH]n3)c(Cl)c2)c(=O)[nH]c1=O", "note": "[YWS01125, 1-(3,5-dichloro-4-((5-cyclobutyl-6-oxo-1,6-dihydropyridazin-3-yl)oxy)phenyl)-2,4-dioxo-1,2,3,4-tetrahydropyrimidine-5-carbonitrile]", "values": [
      {"measurement": "Cmax", "setting": "[1]; oral 10 mg/kg", "value": "188 ± 30", "unit": "ng/mL"},
      {"measurement": "Tmax", "setting": "[1]; oral 10 mg/kg", "value": 0.917, "unit": "h"},
      {"measurement": "CL/F", "setting": "[1]; oral 10 mg/kg", "value": "160 ± 20", "unit": "mL/min/kg"},
      {"measurement": "MRT last", "setting": "[1]; oral 10 mg/kg", "value": 3.42, "unit": "h"},
      {"measurement": "MRT inf", "setting": "[1]; oral 10 mg/kg", "value": 4.04, "unit": "h"},
      {"measurement": "half-life", "setting": "[1]; oral 10 mg/kg", "value": "3.15 ± 1.59", "unit": "h"},
      {"measurement": "Cmax", "setting": "[1]; oral 20 mg/kg", "value": "293 ± 60.4", "unit": "ng/mL"},
      {"measurement": "Tmax", "setting": "[1]; oral 20 mg/kg", "value": 1, "unit": "h"},
      {"measurement": "CL/F", "setting": "[1]; oral 20 mg/kg", "value": "250 ± 280", "unit": "mL/min/kg"},
      {"measurement": "MRT last", "setting": "[1]; oral 20 mg/kg", "value": 3.06, "unit": "h"},
      {"measurement": "MRT inf", "setting": "[1]; oral 20 mg/kg", "value": 3.4, "unit": "h"},
      {"measurement": "half-life", "setting": "[1]; oral 20 mg/kg", "value": "2.54 ± 0.633", "unit": "h"},
      {"measurement": "Cmax", "setting": "[1]; oral 40 mg/kg", "value": "382 ± 30.6", "unit": "ng/mL"},
      {"measurement": "Tmax", "setting": "[1]; oral 40 mg/kg", "value": 0.917, "unit": "h"},
      {"measurement": "CL/F", "setting": "[1]; oral 40 mg/kg", "value": "280 ± 50", "unit": "mL/min/kg"},
      {"measurement": "MRT last", "setting": "[1]; oral 40 mg/kg", "value": 4.57, "unit": "h"},
      {"measurement": "MRT inf", "setting": "[1]; oral 40 mg/kg", "value": 4.94, "unit": "h"},
      {"measurement": "half-life", "setting": "[1]; oral 40 mg/kg", "value": "3.03 ± 1.07", "unit": "h"},
      {"measurement": "Time of highest concentration in the blood", "setting": "[1]; mice, oral", "value": 1, "unit": "h"},
      {"measurement": "Metabolic stability / metabolite formation in liver microsomes", "setting": "[2]", "value": "no metabolites; also recorded: stable"},
      {"measurement": "Metabolic stability / metabolite formation in liver microsomes", "setting": "[3]", "value": "no metabolites; also recorded: stable"},
      {"measurement": "Cytotoxicity", "setting": "[4]", "value": "low cytotoxicity"},
      {"measurement": "Effect on acute hyperlipidemia mice", "setting": "[5]", "value": "lipid-lowering function"},
      {"measurement": "Effect on NASH", "setting": "[6]", "value": "alleviation of NASH"}
    ]}
  ]
}
